Laboratory results from ChEMBL document CHEMBL3870329, “Synthesis of peptide nucleic acids (PNA) with a crosslinking agent to RNA and effective inhibition of dicer” (Bioorg Med Chem Lett, 2016).
The source made the active and inactive calls. The calls are words filed in the database; no cut-off is given here.

Columns and labels:
Nucleic Acid [1] = test: Binding affinity to synthetic 5'-FAM-labelled pre-miR-122 RNA site1 (unknown origin) assessed as human dicer-mediated digestion of pre-miR-122 RNA preincubated with RNA for 2 days followed by dicer addition measured after 2 hrs by denaturing PAGE analysis; type: nucleic-acid assay
Nucleic Acid [2] = test: Binding affinity to synthetic 5'-FAM-labelled pre-miR-122 RNA site1 (unknown origin) assessed as heteroduplex formation at 4 uM measured after 2 hrs by denaturing PAGE analysis relative to control; type: nucleic-acid assay
Nucleic Acid [3] = test: Binding affinity to 5'-end FAM-tagged CACUAUUACCGCAAACUAUC RNA (unknown origin) assessed as induction of crosslinking by measuring heteroduplex formation at 4 uM measured after 24 hrs by bromophenol blue staining-based denaturing PAGE analysis; type: nucleic-acid assay
Nucleic Acid [4] = test: Binding affinity to synthetic 5'-FAM-labelled pre-miR-122 RNA site1 (unknown origin) assessed as inhibition of human dicer-mediated digestion of pre-miR-122 RNA preincubated with RNA for 2 days followed by dicer addition measured after 2 hrs by denaturing PAGE analysis relative to control; type: nucleic-acid assay; settings: concentration not given here
Nucleic Acid [5] = test: Binding affinity to synthetic 5'-fluorescein-labelled pre-miR-122 RNA site1 (unknown origin) assessed as heteroduplex formation at 4 uM measured after 48 hrs by non-denaturing PAGE analysis relative to control; type: nucleic-acid assay
Nucleic Acid [6] = test: Binding affinity to 5'-end FAM-tagged GACCAAGCCCAAUCUGGUU RNA (unknown origin) assessed as induction of crosslinking by measuring heteroduplex formation at 4 uM measured after 24 hrs by bromophenol blue staining-based denaturing PAGE analysis relative to control; type: nucleic-acid assay
Nucleic Acid [7] = test: Binding affinity to 5'-end FAM-tagged GACCAATCCCAATCTGGTT DNA (unknown origin) assessed as induction of crosslinking by measuring heteroduplex formation at 4 uM measured after 24 hrs by bromophenol blue staining-based denaturing PAGE analysis relative to control; type: nucleic-acid assay
Nucleic Acid [8] = test: Binding affinity to 5'-end FAM-tagged GACCAAACCCAATCTGGTT DNA (unknown origin) assessed as induction of crosslinking by measuring heteroduplex formation at 4 uM measured after 24 hrs by bromophenol blue staining-based denaturing PAGE analysis relative to control; type: nucleic-acid assay
Nucleic Acid [9] = test: Binding affinity to 5'-end FAM-tagged GACCAAUCCCAAUCUGGUU RNA (unknown origin) assessed as induction of crosslinking by measuring heteroduplex formation at 4 uM measured after 24 hrs by bromophenol blue staining-based denaturing PAGE analysis relative to control; type: nucleic-acid assay
unidentified [10] = test: Binding affinity to 5'-end FAM-tagged GACCAAUCCCAAUCUGGUU RNA (unknown origin) assessed as melting temperature at 1.5 uM measured after 5 mins by UV spectrophotometry (reference value: 77.1 degC)
Nucleic Acid [11] = test: Binding affinity to 5'-end FAM-tagged GACCAAGCCCAATCTGGTT DNA (unknown origin) assessed as induction of crosslinking by measuring heteroduplex formation at 4 uM measured after 24 hrs by bromophenol blue staining-based denaturing PAGE analysis relative to control; type: nucleic-acid assay
Nucleic Acid [12] = test: Binding affinity to 5'-end FAM-tagged GACCAAACCCAAUCUGGUU RNA (unknown origin) assessed as induction of crosslinking by measuring heteroduplex formation at 4 uM measured after 24 hrs by bromophenol blue staining-based denaturing PAGE analysis relative to control; type: nucleic-acid assay
Nucleic Acid [13] = test: Binding affinity to 5'-end FAM-tagged GACCAACCCCAATCTGGTT DNA (unknown origin) assessed as induction of crosslinking by measuring heteroduplex formation at 4 uM measured after 24 hrs by bromophenol blue staining-based denaturing PAGE analysis relative to control; type: nucleic-acid assay
Nucleic Acid [14] = test: Binding affinity to 5'-end FAM-tagged GACCAACCCCAAUCUGGUU RNA (unknown origin) assessed as induction of crosslinking by measuring heteroduplex formation at 4 uM measured after 24 hrs by bromophenol blue staining-based denaturing PAGE analysis relative to control; type: nucleic-acid assay
unidentified [15] = test: Binding affinity to 5'-end FAM-tagged GACCAATCCCAATCTGGTT DNA (unknown origin) assessed as melting temperature at 1.5 uM measured after 5 mins by UV spectrophotometry (reference value: 67.4 degC)
Nucleic Acid [16] = test: Binding affinity to synthetic 5'-FAM-labelled pre-miR-122 RNA site2 (unknown origin) assessed as heteroduplex formation at 4 uM measured after 2 hrs by denaturing PAGE analysis relative to control; type: nucleic-acid assay
Nucleic Acid [17] = test: Binding affinity to 5'-end FAM-tagged GUGGUAACAGUGUGAGGU RNA (unknown origin) assessed as induction of crosslinking by measuring heteroduplex formation at 4 uM measured after 24 hrs by bromophenol blue staining-based denaturing PAGE analysis; type: nucleic-acid assay
Nucleic Acid [18] = test: Binding affinity to synthetic 5'-FAM-labelled pre-miR-122 RNA site2 (unknown origin) assessed as inhibition of human dicer-mediated digestion of pre-miR-122 RNA preincubated with RNA for 2 days followed by dicer addition measured after 2 hrs by denaturing PAGE analysis relative to control; type: nucleic-acid assay; settings: concentration not given here
Nucleic Acid [19] = test: Binding affinity to synthetic 5'-FAM-labelled pre-miR-122 RNA site2 (unknown origin) assessed as human dicer-mediated digestion of pre-miR-122 RNA preincubated with RNA for 2 days followed by dicer addition measured after 2 hrs by denaturing PAGE analysis; type: nucleic-acid assay
Nucleic Acid [20] = test: Binding affinity to synthetic 5'-fluorescein-labelled pre-miR-122 RNA site2 (unknown origin) assessed as heteroduplex formation at 4 uM measured after 48 hrs by non-denaturing PAGE analysis relative to control; type: nucleic-acid assay
[21] = Binding affinity to 5'-end FAM-tagged GACACAATCCCAATCTGGTT DNA (unknown origin) assessed as change in melting temperature at 1.5 uM measured after 5 mins by UV spectrophotometry
[22] = Binding affinity to 5'-end FAM-tagged GACGCAAUCCCAAUCUGGUU RNA (unknown origin) assessed as change in melting temperature at 1.5 uM measured after 5 mins by UV spectrophotometry
[23] = Binding affinity to 5'-end FAM-tagged GACACAAUCCCAAUCUGGUU RNA (unknown origin) assessed as change in melting temperature at 1.5 uM measured after 5 mins by UV spectrophotometry
[24] = Binding affinity to 5'-end FAM-tagged GACGCAATCCCAATCTGGTT DNA (unknown origin) assessed as change in melting temperature at 1.5 uM measured after 5 mins by UV spectrophotometry
[25] = Binding affinity to 5'-end FAM-tagged GACUCAAUCCCAAUCUGGUU RNA (unknown origin) assessed as change in melting temperature at 1.5 uM measured after 5 mins by UV spectrophotometry
[26] = Binding affinity to 5'-end FAM-tagged GACCCAAUCCCAAUCUGGUU RNA (unknown origin) assessed as change in melting temperature at 1.5 uM measured after 5 mins by UV spectrophotometry
[27] = Binding affinity to 5'-end FAM-tagged GACTCAATCCCAATCTGGTT DNA (unknown origin) assessed as change in melting temperature at 1.5 uM measured after 5 mins by UV spectrophotometry
[28] = Binding affinity to 5'-end FAM-tagged GACCCAATCCCAATCTGGTT DNA (unknown origin) assessed as change in melting temperature at 1.5 uM measured after 5 mins by UV spectrophotometry
Nucleic Acid [29] = test: Binding affinity to synthetic 5'-FAM-labelled pre-miR-122 RNA site3 (unknown origin) assessed as human dicer-mediated digestion of pre-miR-122 RNA preincubated with RNA for 2 days followed by dicer addition measured after 2 hrs by denaturing PAGE analysis; type: nucleic-acid assay
Nucleic Acid [30] = test: Binding affinity to 5'-end FAM-tagged GCAAACUAUCAAAUCUGUGU RNA (unknown origin) assessed as induction of crosslinking by measuring heteroduplex formation at 4 uM measured after 24 hrs by bromophenol blue staining-based denaturing PAGE analysis; type: nucleic-acid assay
Nucleic Acid [31] = test: Binding affinity to synthetic 5'-FAM-labelled pre-miR-122 RNA site3 (unknown origin) assessed as heteroduplex formation at 4 uM measured after 2 hrs by denaturing PAGE analysis relative to control; type: nucleic-acid assay
Nucleic Acid [32] = test: Binding affinity to synthetic 5'-fluorescein-labelled pre-miR-122 RNA site3 (unknown origin) assessed as heteroduplex formation at 4 uM measured after 48 hrs by non-denaturing PAGE analysis relative to control; type: nucleic-acid assay
Nucleic Acid [33] = test: Binding affinity to synthetic 5'-FAM-labelled pre-miR-122 RNA site3 (unknown origin) assessed as inhibition of human dicer-mediated digestion of pre-miR-122 RNA by measuring heteroduplex formation preincubated with RNA for 2 days followed by dicer addition measured after 2 hrs by denaturing PAGE analysis relative to control; type: nucleic-acid assay; settings: concentration not given here

Cc1cn(CC(=O)N(CCNC(=O)CN(CCNC(=O)CN(CCNC(=O)CN(CCNC(=O)CN(CCNC(=O)CN(CCNC(=O)CN(CCNC(=O)CN(CCN)C(=O)Cn2cnc3c(N)ncnc32)C(=O)Cn2cc(C)c(=O)[nH]c2=O)C(=O)Cn2cnc3c(=O)[nH]c(N)nc32)C(=O)Cn2cnc3c(=O)[nH]c(N)nc32)C(=O)Cn2ccc(N)nc2=O)C(=O)Cn2cnc3c(=O)[nH]c(N)nc32)C(=O)Cn2cc(C)c(=O)[nH]c2=O)CC(=O)NCCN(CC(=O)NCCN(CC(=O)NCCN(CC(=O)NCCN(CC(=O)NCCN(CC(=O)N[C@@H](CCCNC(=N)N)C(=O)O)C(=O)Cn2cnc3c(N)ncnc32)C(=O)Cn2cc(C)c(=O)[nH]c2=O)C(=O)Cn2cnc3c(N)ncnc32)C(=O)Cn2cnc3c(=O)[nH]c(N)nc32)C(=O)Cn2cc(C)c(=O)[nH]c2=O)c(=O)[nH]c1=O
Activity (Nucleic Acid [1]): 91%
Activity (Nucleic Acid [2]): 0%
Activity (Nucleic Acid [3]): Active
inhibition (Nucleic Acid [4]): 9%
Activity (Nucleic Acid [5]): 16%

C=Cc1nc(N)nc2c1ncn2CC(=O)N(CCNC(=O)CN(CCNC(=O)CN(CCNC(=O)CN(CCNC(C)=O)C(=O)Cn1cnc2c(=O)[nH]c(N)nc21)C(=O)Cn1cc(C)c(=O)[nH]c1=O)C(=O)Cn1cc(C)c(=O)[nH]c1=O)CC(=O)NCCN(CC(=O)NCCN(CC(=O)NCCN(CC(=O)NCCN(CC(=O)NCCN(CC(=O)NCCN(CC(=O)NCCN(CC(=O)N[C@@H](CCCNC(=N)N)C(=O)N[C@@H](CCCNC(=N)N)C(=O)NCC(N)=O)C(=O)Cn1cnc2c(=O)[nH]c(N)nc21)C(=O)Cn1cnc2c(N)ncnc21)C(=O)Cn1cc(C)c(=O)[nH]c1=O)C(=O)Cn1cc(C)c(=O)[nH]c1=O)C(=O)Cn1cnc2c(=O)[nH]c(N)nc21)C(=O)Cn1cnc2c(=O)[nH]c(N)nc21)C(=O)Cn1cnc2c(=O)[nH]c(N)nc21
Activity (Nucleic Acid [6]): 4%
Activity (Nucleic Acid [7]): 3%
Activity (Nucleic Acid [8]): 0%
Activity (Nucleic Acid [9]): 2%
Tm (unidentified [10]): 83 °C
Activity (Nucleic Acid [11]): 7%
Activity (Nucleic Acid [12]): 0%
Activity (Nucleic Acid [13]): 1%
Activity (Nucleic Acid [14]): 0%
Tm (unidentified [15]): 77.3 °C

Cc1cn(CC(=O)N(CCNC(=O)CN(CCNC(=O)CN(CCNC(=O)CN(CCNC(=O)CN(CCNC(=O)CN(CCNC(=O)CN(CCNC(=O)CN(CCNC(=O)CN(CCNC(=O)CN(CCNC(=O)CN(CCN)C(=O)Cn2cnc3c(N)ncnc32)C(=O)Cn2cc(C)c(=O)[nH]c2=O)C(=O)Cn2cc(C)c(=O)[nH]c2=O)C(=O)Cn2cnc3c(=O)[nH]c(N)nc32)C(=O)Cn2cc(C)c(=O)[nH]c2=O)C(=O)Cn2ccc(N)nc2=O)C(=O)Cn2cnc3c(N)ncnc32)C(=O)Cn2ccc(N)nc2=O)C(=O)Cn2cnc3c(N)ncnc32)C(=O)Cn2ccc(N)nc2=O)CC(=O)NCCN(CC(=O)NCCN(CC(=O)N[C@@H](CCCNC(=N)N)C(=O)O)C(=O)Cn2ccc(N)nc2=O)C(=O)Cn2ccc(N)nc2=O)c(=O)[nH]c1=O
Activity (Nucleic Acid [16]): 0%
Activity (Nucleic Acid [17]): Active
inhibition (Nucleic Acid [18]): 22%
Activity (Nucleic Acid [19]): 78%
Activity (Nucleic Acid [20]): 28%

CSCCc1nc(N)nc2c1ncn2CC(=O)N(CCNC(C)=O)CC(=O)NCCN(CC(=O)NCCN(CC(=O)NCCN(CC(=O)NCCN(CC(=O)NCCN(CC(=O)NCCN(CC(=O)NCCN(CC(=O)NCCN(CC(=O)NCCN(CC(=O)NCCN(CC(=O)NCCN(CC(=O)N[C@@H](CCCNC(=N)N)C(=O)N[C@@H](CCCNC(=N)N)C(=O)NCC(N)=O)C(=O)Cn1cnc2c(=O)[nH]c(N)nc21)C(=O)Cn1cnc2c(N)ncnc21)C(=O)Cn1cc(C)c(=O)[nH]c1=O)C(=O)Cn1cc(C)c(=O)[nH]c1=O)C(=O)Cn1cnc2c(=O)[nH]c(N)nc21)C(=O)Cn1cnc2c(=O)[nH]c(N)nc21)C(=O)Cn1cnc2c(=O)[nH]c(N)nc21)C(=O)Cn1cnc2c(N)ncnc21)C(=O)Cn1cc(C)c(=O)[nH]c1=O)C(=O)Cn1cc(C)c(=O)[nH]c1=O)C(=O)Cn1cnc2c(=O)[nH]c(N)nc21
ΔTm [21]: -2.7 °C
ΔTm [22]: -2.1 °C
ΔTm [23]: -4.2 °C
ΔTm [24]: -1.9 °C
ΔTm [25]: -2.3 °C
ΔTm [26]: -2.5 °C
ΔTm [27]: -1.1 °C
ΔTm [28]: -1.7 °C

Cc1cn(CC(=O)N(CCNC(=O)CN(CCNC(=O)CN(CCNC(=O)CN(CCNC(=O)CN(CCNC(=O)CN(CCN)C(=O)Cn2cnc3c(N)ncnc32)C(=O)Cn2cc(C)c(=O)[nH]c2=O)C(=O)Cn2cnc3c(N)ncnc32)C(=O)Cn2cnc3c(=O)[nH]c(N)nc32)C(=O)Cn2cc(C)c(=O)[nH]c2=O)CC(=O)NCCN(CC(=O)NCCN(CC(=O)NCCN(CC(=O)NCCN(CC(=O)NCCN(CC(=O)NCCN(CC(=O)NCCN(CC(=O)N[C@@H](CCCNC(=N)N)C(=O)O)C(=O)Cn2ccc(N)nc2=O)C(=O)Cn2cnc3c(N)ncnc32)C(=O)Cn2ccc(N)nc2=O)C(=O)Cn2cnc3c(N)ncnc32)C(=O)Cn2cnc3c(=O)[nH]c(N)nc32)C(=O)Cn2cnc3c(N)ncnc32)C(=O)Cn2cc(C)c(=O)[nH]c2=O)c(=O)[nH]c1=O
Activity (Nucleic Acid [29]): 53%
Activity (Nucleic Acid [30]): Active
Activity (Nucleic Acid [31]): 0%
Activity (Nucleic Acid [32]): 75%
inhibition (Nucleic Acid [33]): 47%
